In ChEMBL document CHEMBL1134390, “Comparative molecular field analysis of dopamine D4 receptor antagonists including 3-[4-(4-chlorophenyl)piperazin-1-ylmethyl]pyrazolo[1,5-a]pyridine (FAUC 113), 3-[4-(4-chlorophenyl)piperazin-1-ylmethyl]-1H-pyrrolo-[2,3-b]pyridine (L-745,870), and clozapine” (J Med Chem, 2001):

Molecular target: T1, D(4) dopamine receptor (Homo sapiens) (UniProt P21917)
T1 sequence (whole entry): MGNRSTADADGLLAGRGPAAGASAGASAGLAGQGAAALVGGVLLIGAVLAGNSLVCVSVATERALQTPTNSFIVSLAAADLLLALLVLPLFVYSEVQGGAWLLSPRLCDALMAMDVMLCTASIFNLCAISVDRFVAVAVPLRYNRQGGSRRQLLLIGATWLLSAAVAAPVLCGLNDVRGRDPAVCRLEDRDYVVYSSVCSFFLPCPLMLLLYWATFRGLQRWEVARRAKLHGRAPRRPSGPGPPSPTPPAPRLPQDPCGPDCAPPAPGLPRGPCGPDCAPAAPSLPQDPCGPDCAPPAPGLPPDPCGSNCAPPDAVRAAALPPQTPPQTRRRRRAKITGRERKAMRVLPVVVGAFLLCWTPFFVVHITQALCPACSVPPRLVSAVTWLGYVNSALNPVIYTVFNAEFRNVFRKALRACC
Settings: CHO-K1
Description: Ability to displace [3H]spiperone from dopamine receptor D4.4 expressed in CHO-K1 cells

| Compound | pKi |
| --- | --- |
| N#CC(C#N)=Cc1ccc(CN2CCN(c3ccc(Cl)cc3)CC2)[nH]1 | 8.02 |
| Clc1ccc(N2CCN(Cc3cc4ccccn4n3)CC2)cc1 | 8.66 |
| Clc1ccc(N2CCN(Cc3ccccc3)CC2)cc1 | 6.6 |
| Clc1ccc(N2CCN(Cc3cnn4c(I)cccc34)CC2)cc1 | 8.3 |
| OCc1ccc2c(CN3CCN(c4ccccc4)CC3)cnn2c1 | 7.71 |
| C#Cc1ccc(N2CCN(Cc3cnn4ccccc34)CC2)cc1 | 8.36 |
| N#CC(C#N)=Cc1cc(CN2CCN(c3ccc(Cl)cc3)CC2)c[nH]1 | 8.24 |
| C#Cc1cccc2c(CN3CCN(c4ccc(Cl)cc4)CC3)cnn12 | 8.91 |
| CCN1CCN(Cc2cnn3ccccc23)CC1 | 4.62 |
| Clc1cccc(N2CCN(Cc3cnn4c3ccc3ccccc34)CC2)c1 | 6.66 |
| Cc1cccc2c(CN3CCN(c4ccc(Cl)cc4)CC3)cnn12 | 8.57 |
| Cc1cccn2ncc(CN3CCN(c4ccc(Cl)cc4)CC3)c12 | 7.3 |
| FC(F)(F)c1cccc(N2CCN(Cc3cnn4ccccc34)CC2)c1 | 8.72 |
| Fc1ccc(N2CCN(Cc3cnn4ccccc34)CC2)cc1 | 7.7 |
| Clc1ccc(N2CCN(Cc3cc[nH]c3)CC2)cc1 | 7.41 |
| Clc1cccc(N2CCN(Cc3cnn4ccc5ccccc5c34)CC2)c1 | 6.1 |
| Clc1ccc(N2CCN(Cc3cc4ccccc4[nH]3)CC2)cc1 | 7.74 |
| Clc1ccc(N2CCN(Cc3ccc[nH]3)CC2)cc1 | 7.58 |
| Clc1ccc(N2CCN(Cc3cnn4ccccc34)CC2)cc1Cl | 8.25 |
| Ic1ccc(N2CCN(Cc3cnn4ccccc34)CC2)cc1 | 8.52 |
